The data set can be described thus: Aqueous stability in formulation vehicle (% substrate remaining). In kind it is physicochemical. To be noted: 0.0005% w/w (5 ppm) compound in aqueous formulation vehicle, pH 6.

These results are taken from patent US8609658B2, “N,N-dialkylalkylenyl esters, compositions thereof, and methods for use thereof” (Allergan, Inc., priority 2011, dated 2013).

Consider `CCN(CC)CCCC(C)OC(=O)COc1cccc(NC(=O)c2cc(-c3cccc(F)c3)ccc2F)c1` (stereo not drawn), for which the “% Substrate Remaining” value runs as follows: (7 days/25° C.) 101.2%; (7 days/40° C.) 92%; (28 days/25° C.) 94.4%.
The matching figures for `CC[N+](C)(CC)CCCOC(=O)COc1cccc(NC(=O)c2cc(-c3cccc(F)c3)ccc2F)c1`: 95.5%, 49.2% and 82.6%.
The matching figures for `CN(C)c1ccc(OC(=O)COc2cccc(NC(=O)c3cc(-c4cccc(F)c4)ccc3F)c2)cc1`: 92%, 78.8% and 78%.
The matching figures for `O=C(COc1cccc(NC(=O)c2cc(-c3cccc(F)c3)ccc2F)c1)Oc1ccc(CN2CCOCC2)cc1`: 61.5%, 18% and 12%.
